Patent publication EP0054974A1, “Imidazolylpropanol compounds and their acid addition salts, and production and use thereof” (SUMITOMO CHEMICAL COMPANY, LIMITED, priority 1980, dated 1982)
Values after ≈ are worked out from the molar mass of the structure shown.

Tests used:
[1] = system: Candida albicans MTU12001; assay: Antifungal activity in vitro, minimum inhibitory concentration on Sabouraud's agar medium; format: cell-based
Text: (§1) The antifungal activity of some representatives of the imidazolylpropanol compounds (I) in in vitro test is as shown below.

Candida albicans Ohta = assay: as above; format: cell-based
Text: as §1

Trichophyton rubrum = assay: as above; format: cell-based
Text: as §1

Candida albicans KB-8 = assay: Antifungal activity in vivo (decrease of cells in the kidney of Candida-infected mice); conditions: for log reduction at 20 mg/kg: number of cells in kidney, 24 hours after infection; for Medicated group, number of cells in kidney: male DDY mice infected i.v. with Candida albicans KB-8, kidneys 24 hours after infection
Description: The in vivo test of the antifungal activity with the said representative ones of the imidazolylpropanol compounds (I) was carried out in the following manner:
Candida albicans KB-8 cultured on the Sabroud's. agar plate admixed with blood in a concentration of 5 % by weight at 30°C for 4 days was suspended in physiologically saline solution to make a number of cells of 10^7/ml. The suspension was intravenously injected through the tail vein into 5 week old male DDY mice at a dose of 0.2 ml per mouse. […]
After 24 hours from the infection, the animals were killed and the kidneys were taken out. Each kidney was admixed with sea sand and smashed. After diluting with physiologically saline solution to give 5 times in volume, the dilution was centrifuged at 900 rpm for 5 minutes. A certain amount of the supernatant was scattered on a Sabroud's agar plate and cultured at 37°C for 48 hours. Then, the number of colonies was counted, the number of cells per one gram of the kidney was calculated, and the difference between the calculated numbers in the medicated group and in the non-medicated group was expressed by a logarithmic value.

[2] = Candida albicans, KB8, po, dose 20 mg/kg per os, read-out: Medicated/Non-medicated (logarithmic value)

| SMILES | MIC [1] [µg/mL] | MIC (Candida albicans Ohta) [µg/mL] | MIC (Trichophyton rubrum) [µg/mL] | log reduction at 20 mg/kg (Candida albicans KB-8; [2]) | Medicated group, number of cells in kidney (Candida albicans KB-8; dose 20 mg/kg per os) | log reduction at 100 mg/kg (Candida albicans KB-8; Candida albicans, KB8, po, 24 h, read-out: Medicated/Non-medicated (logarithmic value)) | Medicated group, number of cells in kidney (Candida albicans KB-8; dose 100 mg/kg per os) |
| --- | --- | --- | --- | --- | --- | --- | --- |
| OC(CNC1CCCCC1)(Cn1ccnc1)c1ccc(Cl)cc1Cl (stereo not drawn) | – | – | – | 1.27 | 8.91x10^3 cell/g | – | – |
| CCCCCCNCC(O)(Cn1ccnc1)c1ccc(Cl)cc1Cl (stereo not drawn) [CH3-(CH2)5-NH-] | – | – | – | 1.52 | 1.75x10^3 cell/g | – | – |
| Clc1ccc(COC(Cn2ccnc2)c2ccc(Cl)cc2Cl)c(Cl)c1 (stereo not drawn) [Miconazole, 1-[2,4-Dichloro-β-(2,4-dichlorobenzyloxy)phenylethyl]imidazole, reference compound] | – | – | – | – | – | 0.8 | 2.96x10^4 cell/g |
| OCCNCC(O)(Cn1ccnc1)c1ccc(Cl)cc1Cl (stereo not drawn) [the 5th table, row 1] | 40 to 100 (≈ 121 to 303 µM) | 40 to 100 (≈ 121 to 303 µM) | 40 to 100 (≈ 121 to 303 µM) | – | – | – | – |
| OC(CNCCN1CCOCC1)(Cn1ccnc1)c1ccc(Cl)cc1Cl (stereo not drawn) [the 5th table, row 2] | 40 to 100 (≈ 100 to 250 µM) | 40 to 100 (≈ 100 to 250 µM) | 40 to 100 (≈ 100 to 250 µM) | – | – | – | – |
| OC(CNCc1ccco1)(Cn1ccnc1)c1ccc(Cl)cc1Cl (stereo not drawn) [the 5th table, row 3] | 40 to 100 (≈ 109 to 273 µM) | 40 to 100 (≈ 109 to 273 µM) | 40 to 100 (≈ 109 to 273 µM) | – | – | – | – |
| OC(CNCC1CCCO1)(Cn1ccnc1)c1ccc(Cl)cc1Cl (stereo not drawn) [the 5th table, row 4] | 40 to 100 (≈ 108 to 270 µM) | 40 to 100 (≈ 108 to 270 µM) | 40 to 100 (≈ 108 to 270 µM) | – | – | – | – |
| OC(CN1CCN(Cc2ccccc2)CC1)(Cn1ccnc1)c1ccc(Cl)cc1Cl (stereo not drawn) [the 5th table, row 7] | 40 to 100 (≈ 89.8 to 225 µM) | 40 to 100 (≈ 89.8 to 225 µM) | 20 (≈ 44.9 µM) | – | – | – | – |
| OC(CNCc1ccccc1)(Cn1ccnc1)c1ccc(Cl)cc1Cl (stereo not drawn) [the 6th table, row 5] | – | – | – | 1.6 | 4.17x10^3 cell/g | – | – |
| OCCNCC(O)(Cn1ccnc1)c1ccc(Cl)cc1Cl (stereo not drawn) [the 6th table, row 6] | – | – | – | 1.58 | 1.91x10^3 cell/g | – | – |
| OC(CNCCN1CCOCC1)(Cn1ccnc1)c1ccc(Cl)cc1Cl (stereo not drawn) [the 6th table, row 7] | – | – | – | 1.23 | 9.78x10^3 cell/g | – | – |
| OC(CNCc1ccco1)(Cn1ccnc1)c1ccc(Cl)cc1Cl (stereo not drawn) [the 7th table, row 3] | – | – | – | 1.05 | 5.13x10^3 cell/g | – | – |
| OC(CNCC1CCCO1)(Cn1ccnc1)c1ccc(Cl)cc1Cl (stereo not drawn) [the 7th table, row 4] | – | – | – | 1.01 | 5.62x10^3 cell/g | – | – |
| CN1CCN(CC(O)(Cn2ccnc2)c2ccc(Cl)cc2Cl)CC1 (stereo not drawn) [the 7th table, row 5] | – | – | – | 1.59 | 8.32x10^3 cell/g | – | – |
| OC(CN1CCN(c2ccccc2)CC1)(Cn1ccnc1)c1ccc(Cl)cc1Cl (stereo not drawn) [the 7th table, row 6] | – | – | – | 1.58 | 1.52x10^3 cell/g | – | – |
| OC(CN1CCN(Cc2ccccc2)CC1)(Cn1ccnc1)c1ccc(Cl)cc1Cl (stereo not drawn) [the 7th table, row 7] | – | – | – | 1.15 | 4.09x10^3 cell/g | – | – |

Second part, led by results:

| MIC [1] [µg/mL] | MIC (Candida albicans Ohta) [µg/mL] | MIC (Trichophyton rubrum) [µg/mL] | SMILES | log reduction at 20 mg/kg (Candida albicans KB-8; [2]) | Medicated group, number of cells in kidney (Candida albicans KB-8; dose 20 mg/kg per os) | log reduction at 100 mg/kg (Candida albicans KB-8; Candida albicans, KB8, po, 24 h, read-out: Medicated/Non-medicated (logarithmic value)) | Medicated group, number of cells in kidney (Candida albicans KB-8; dose 100 mg/kg per os) |
| --- | --- | --- | --- | --- | --- | --- | --- |
| 0.15 (≈ 0.395 µM) | 5 (≈ 13.2 µM) | 10 (≈ 26.4 µM) | OC(CSc1ccccc1)(Cn1ccnc1)c1ccc(Cl)cc1Cl (stereo not drawn) | – | – | – | – |
| 0.15 (≈ 0.381 µM) | 0.6 (≈ 1.53 µM) | 5 (≈ 12.7 µM) | Cc1cccc(SCC(O)(Cn2ccnc2)c2ccc(Cl)cc2Cl)c1 (stereo not drawn) | – | – | – | – |
| 0.3 (≈ 0.733 µM) | 5 (≈ 12.2 µM) | 20 (≈ 48.9 µM) | COc1ccc(SCC(O)(Cn2ccnc2)c2ccc(Cl)cc2Cl)cc1 (stereo not drawn) | – | – | – | – |
| 0.3 (≈ 0.755 µM) | 2.5 (≈ 6.29 µM) | 40 (≈ 101 µM) | OC(CSc1ccc(F)cc1)(Cn1ccnc1)c1ccc(Cl)cc1Cl (stereo not drawn) | – | – | – | – |
| 0.075 (≈ 0.191 µM) | 2.5 (≈ 6.36 µM) | 5 (≈ 12.7 µM) | OC(CSCc1ccccc1)(Cn1ccnc1)c1ccc(Cl)cc1Cl (stereo not drawn) | – | – | – | – |
| 10 (≈ 26.3 µM) | 40 to 100 (≈ 105 to 263 µM) | 20 (≈ 52.6 µM) | OC(CSc1ccncc1)(Cn1ccnc1)c1ccc(Cl)cc1Cl (stereo not drawn) | – | – | – | – |
| 0.6 (≈ 1.74 µM) | 40 (≈ 116 µM) | 5 (≈ 14.5 µM) | CC(C)SCC(O)(Cn1ccnc1)c1ccc(Cl)cc1Cl (stereo not drawn) | – | – | – | – |
| 0.6 (≈ 1.68 µM) | 40 (≈ 112 µM) | 5 (≈ 14 µM) | CC(C)CCOCC(O)(Cn1ccnc1)c1ccc(Cl)cc1Cl (stereo not drawn) | – | – | – | – |
| 10 (≈ 26.5 µM) | 40 (≈ 106 µM) | 0.6 (≈ 1.59 µM) | OC(COCc1ccccc1)(Cn1ccnc1)c1ccc(Cl)cc1Cl (stereo not drawn) | – | – | – | – |
| 0.6 (≈ 1.53 µM) | 40 (≈ 102 µM) | 2.5 (≈ 6.39 µM) | OC(COCCc1ccccc1)(Cn1ccnc1)c1ccc(Cl)cc1Cl (stereo not drawn) | – | – | – | – |
| 1.25 (≈ 2.95 µM) | 20 (≈ 47.2 µM) | 5 (≈ 11.8 µM) | OC(COCCSc1ccccc1)(Cn1ccnc1)c1ccc(Cl)cc1Cl (stereo not drawn) | – | – | – | – |
| 1.25 (≈ 3.14 µM) | 20 (≈ 50.3 µM) | 5 (≈ 12.6 µM) | OC(COc1ccccc1Cl)(Cn1ccnc1)c1ccc(Cl)cc1Cl (stereo not drawn) | – | – | – | – |
| 1.25 (≈ 3.82 µM) | 40 to 100 (≈ 122 to 306 µM) | 10 (≈ 30.6 µM) | C=CCOCC(O)(Cn1ccnc1)c1ccc(Cl)cc1Cl (stereo not drawn) [CH2=CH-CH2-O-] | – | – | – | – |
| 5 (≈ 14.6 µM) | 40 (≈ 117 µM) | 0.6 (≈ 1.75 µM) | CCCCOCC(O)(Cn1ccnc1)c1ccc(Cl)cc1Cl (stereo not drawn) [CH3-(CH2)3-O-, 3-n-butyloxy-2-(2,4-dichlorophenyl)-l-(imidazol-l-yl)-2-propanol] | – | – | – | – |
| 0.075 (≈ 0.209 µM) | 1.25 (≈ 3.48 µM) | 0.6 (≈ 1.67 µM) | CCCCSCC(O)(Cn1ccnc1)c1ccc(Cl)cc1Cl (stereo not drawn) [CH3-(CH2)3-S-] | – | – | – | – |
| 1.25 (≈ 3.35 µM) | 5 (≈ 13.4 µM) | 1.25 (≈ 3.35 µM) | CCCCCSCC(O)(Cn1ccnc1)c1ccc(Cl)cc1Cl (stereo not drawn) [CH3-(CH2)4-S-] | – | – | – | – |
| 0.3 (≈ 0.774 µM) | 2.5 (≈ 6.45 µM) | 0.6 (≈ 1.55 µM) | CCCCCCSCC(O)(Cn1ccnc1)c1ccc(Cl)cc1Cl (stereo not drawn) [CH3-(CH2)5-S-] | – | – | – | – |
| 0.15 (≈ 0.361 µM) | 1.25 (≈ 3.01 µM) | 0.3 (≈ 0.722 µM) | CCCCCCCCSCC(O)(Cn1ccnc1)c1ccc(Cl)cc1Cl (stereo not drawn) [CH3-(CH2)7-S-] | – | – | – | – |
| 40 to 100 (≈ 106 to 266 µM) | 40 to 100 (≈ 106 to 266 µM) | – | OC(CNCc1ccccc1)(Cn1ccnc1)c1ccc(Cl)cc1Cl (stereo not drawn) [the 5th table, row 0] | – | – | – | – |
| 2.5 (≈ 6.77 µM) | 40 (≈ 108 µM) | 40 to 100 (≈ 108 to 271 µM) | CN1CCN(CC(O)(Cn2ccnc2)c2ccc(Cl)cc2Cl)CC1 (stereo not drawn) [the 5th table, row 5] | – | – | – | – |
| 5 (≈ 11.6 µM) | 20 (≈ 46.4 µM) | 0.6 (≈ 1.39 µM) | OC(CN1CCN(c2ccccc2)CC1)(Cn1ccnc1)c1ccc(Cl)cc1Cl (stereo not drawn) [the 5th table, row 6] | – | – | – | – |
